Molecular target: OGG1 (Homo sapiens (Human), UniProt O15527)
Assay: In vitro OGG1 activity assay
Assay type: biochemical
Settings: 800 pM OGG1 enzyme, 2 nM human APEX1, 10 nM 8-oxoA:C substrate
Method: Method 1: In Vitro OGG1 Activity Assay OGG1 activity is assayed by measuring the increase in fluorescence from a duplex oligonucleotide containing an OGG1 substrate and a fluorophore in close proximity that are quenched by a quencher on the complementary strand. […] OGG1 activity releases the substrate base from DNA by cleaving the N-glycosidic bond between base and deoxyribose. The resulting apurinic site is cleaved by an excessive amount APEX1 activity which cause the duplex to melt, which in turn cause the fluorophore to become unquenched. Compounds to be tested are dissolved in DMSO and nano-dispensed directly into black 384-well plates, followed by transfer of enzyme and substrate solutions. […] The fluorescent signal is recorded in a plate reader equipped with suitable filters to register fluorescein fluorescence.

OGG1, sequence (O15527 whole entry): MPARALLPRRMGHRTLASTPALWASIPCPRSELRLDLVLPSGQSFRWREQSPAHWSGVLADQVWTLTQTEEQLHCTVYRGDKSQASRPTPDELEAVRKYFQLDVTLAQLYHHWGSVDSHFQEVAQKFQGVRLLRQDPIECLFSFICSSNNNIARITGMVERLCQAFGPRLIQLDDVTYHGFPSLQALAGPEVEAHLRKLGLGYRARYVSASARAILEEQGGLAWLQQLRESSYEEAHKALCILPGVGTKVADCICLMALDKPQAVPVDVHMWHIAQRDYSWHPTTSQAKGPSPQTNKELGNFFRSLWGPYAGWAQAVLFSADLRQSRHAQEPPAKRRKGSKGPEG

## O=C(Nc1ccc(Cl)cc1)N1CCC(n2c(=O)[nH]c3cc(Cl)ccc32)CC1 [Example 1, 4-(5-Chloro-2-oxo-2,3-dihydro-1H-1,3-benzodiazol-1-yl)-N-(4-chlorophenyl) piperidine-1-carboxamide]
  IC50: 2800 nM

## Cc1cccc2c1[nH]c(=O)n2C1CCN(C(=O)Nc2ccc(I)cc2)CC1 [Example 4, N-(4-iodophenyl)-4-(4-methyl-2-oxo-2,3-dihydro-1H-1,3-benzodiazol-1-yl)piperidine-1-carboxamide]
  IC50: 660 nM

## O=C(Nc1ccc(I)cc1)N1CCC(n2c(=O)[nH]c3c(O)cccc32)CC1 [Example 6, 4-(4-Hydroxy-2-oxo-2,3-dihydro-1H-1,3-benzodiazol-1-yl)-N-(4-iodophenyl)piperidine-1-carboxamide]
  IC50: 540 nM

## Cc1cccc2c1[nH]c(=O)n2C1CCN(C(=O)Nc2ccc(Cl)cc2)CC1 [Example 7, N-(4-chlorophenyl)-4-(4-methyl-2-oxo-2,3-dihydro-1H-1,3-benzodiazol-1-yl)piperidine-1-carboxamide]
  IC50: 1080 nM

## COc1cccc2c1[nH]c(=O)n2C1CCN(C(=O)Nc2ccc(Cl)cc2)CC1 [Example 8, N-(4-chlorophenyl)-4-(4-methoxy-2-oxo-2,3-dihydro-1H-1,3-benzodiazol-1-yl)piperidine-1-carboxamide]
  IC50: 1550 nM

## O=C(Nc1ccc(Cl)c(Cl)c1)N1CCC(n2c(=O)[nH]c3c(O)cccc32)CC1 [Example 9, N-(3,4-dichlorophenyl)-4-(4-hydroxy-2-oxo-2,3-dihydro-1H-1,3-benzodiazol-1-yl)piperidine-1-carboxamide]
  IC50: 796 nM

## Cc1ccc2c(c1)[nH]c(=O)n2C1CCN(C(=O)Nc2ccc(I)cc2)CC1 [Example 11, N-(4-iodophenyl)-4-(5-methyl-2-oxo-2,3-dihydro-1H-1,3-benzodiazol-1-yl)piperidine-1-carboxamide]
  IC50: 1780 nM

## O=C(Nc1ccc(I)c(Cl)c1)N1CCC(n2c(=O)[nH]c3cc(Cl)ccc32)CC1 [Example 17, 4-(5-Chloro-2-oxo-2,3-dihydro-1H-1,3-benzodiazol-1-yl)-N-(3-chloro-4-iodophenyl)piperidine-1-carboxamide]
  IC50: 1420 nM

## CCOc1cccc2c1[nH]c(=O)n2C1CCN(C(=O)Nc2ccc(I)cc2)CC1 [Example 18, 4-(4-Ethoxy-2-oxo-2,3-dihydro-1H-1,3-benzodiazol-1-yl)-N-(4-iodophenyl)piperidine-1-carboxamide]
  IC50: 1390 nM

## O=C(Nc1ccc(I)cc1)N1CCC(n2c(=O)[nH]c3c(-c4ccc[nH]4)cccc32)CC1 [Example 25, N-(4-iodophenyl)-4-[2-oxo-4-(1H-pyrrol-2-yl)-2,3-dihydro-1H-1,3-benzodiazol-1-yl]piperidine-1-carboxamide]
  IC50: 765 nM

## Nc1cccc(-c2cccc3c2[nH]c(=O)n3C2CCN(C(=O)Nc3ccc(Cl)c(Cl)c3)CC2)c1 [Example 29, 4-[4-(3-Aminophenyl)-2-oxo-2,3-dihydro-1H-1,3-benzodiazol-1-yl]-N-(3,4-dichlorophenyl)piperidine-1-carboxamide]
  IC50: 2060 nM

## O=C(Nc1ccc(I)cc1)N1CCC(n2c(=O)[nH]c3c(CCO)cccc32)CC1 [Example 30, 4-[4-(2-Hydroxyethyl)-2-oxo-2,3-dihydro-1H-1,3-benzodiazol-1-yl]-N-(4-iodophenyl)piperidine-1-carboxamide]
  IC50: 1710 nM

## O=C(Nc1ccc(I)cc1)N1CCC(n2c(=O)[nH]c3c(C4CC4)cccc32)CC1 [Example 31, 4-(4-Cyclopropyl-2-oxo-2,3-dihydro-1H-1,3-benzodiazol-1-yl)-N-(4-iodophenyl)piperidine-1-carboxamide]
  IC50: 1090 nM

## NCc1ccc(-c2cccc3c2[nH]c(=O)n3C2CCN(C(=O)Nc3ccc(Cl)c(Cl)c3)CC2)cc1 [Example 33, 4-{4-[4-(Aminomethyl)phenyl]-2-oxo-2,3-dihydro-1H-1,3-benzodiazol-1-yl}-N-(3,4-dichlorophenyl)piperidine-1-carboxamide]
  IC50: 2530 nM

## O=C(Nc1ccc(I)cc1)N1CCCC(n2c(=O)[nH]c3c(Br)cccc32)CC1 (stereo not shown) [Example 34, 4-(4-Bromo-2-oxo-2,3-dihydro-1H-1,3-benzodiazol-1-yl)-N-(4-iodophenyl)azepane-1-carboxamide]
  IC50: 502 nM

## O=C(O)c1ccc(-c2cccc3c2[nH]c(=O)n3C2CCN(C(=O)Nc3ccc(Cl)c(Cl)c3)CC2)cc1 [Example 35, 4-(1-{1-[(3,4-Dichlorophenyl)carbamoyl]piperidin-4-yl}-2-oxo-2,3-dihydro-1H-1,3-benzodiazol-4-yl)benzoic acid]
  IC50: 1970 nM

## CN(C)CCOc1ccc(-c2cccc3c2[nH]c(=O)n3C2CCN(C(=O)Nc3ccc(Cl)c(Cl)c3)CC2)cc1 [Example 36, N-(3,4-dichlorophenyl)-4-(4-{4-[2-(dimethylamino)ethoxy]phenyl}-2-oxo-2,3-dihydro-1H-1,3-benzodiazol-1-yl)piperidine-1-carboxamide]
  IC50: 3650 nM

## O=C(Nc1ccc(Cl)c(Cl)c1)N1CCC(n2c(=O)[nH]c3c(-c4ccc(C(=O)C(F)(F)F)cc4)cccc32)CC1 [Example 40, N-(3,4-dichlorophenyl)-4-{2-oxo-4-[4-(2,2,2-trifluoroacetyl)phenyl]-2,3-dihydro-1H-1,3-benzodiazol-1-yl}piperidine-1-carboxamide]
  IC50: 6320 nM

## CCc1ccc(NC(=O)N2CCC(n3c(=O)[nH]c4c(Br)cccc43)CC2)cc1 [Example 42, 4-(4-Bromo-2-oxo-2,3-dihydro-1H-1,3-benzodiazol-1-yl)-N-(4-ethylphenyl)piperidine-1-carboxamide]
  IC50: 2410 nM

## Cc1cc(NC(=O)N2CCC(n3c(=O)[nH]c4c(-c5ccc(CO)nc5)cccc43)CC2)ccc1I [Example 81, 4-{4-[6-(Hydroxymethyl)pyridin-3-yl]-2-oxo-2,3-dihydro-1H-1,3-benzodiazol-1-yl}-N-(4-iodo-3-methylphenyl)piperidine-1-carboxamide]
  IC50: 408 nM

## CCN(CC)C(=O)c1cnn(-c2cccc3c2[nH]c(=O)n3C2CCN(C(=O)Nc3ccc(I)cc3)CC2)c1 [Example 88, 4-{4-[4-(Diethylcarbamoyl)-1H-pyrazol-1-yl]-2-oxo-2,3-dihydro-1H-1,3-benzodiazol-1-yl}-N-(4-iodophenyl)piperidine-1-carboxamide]
  IC50: 1760 nM

## O=C(NCC(O)CO)c1cnn(-c2cccc3c2[nH]c(=O)n3C2CCN(C(=O)Nc3ccc(I)cc3)CC2)c1 (stereo not shown) [Example 90, 4-(4-{4-[(2,3-Dihydroxypropyl)carbamoyl]-1H-pyrazol-1-yl}-2-oxo-2,3-dihydro-1H-1,3-benzodiazol-1-yl)-N-(4-iodophenyl)piperidine-1-carboxamide]
  IC50: 218 nM

## COc1cc(NC(=O)N2CCC(n3c(=O)[nH]c4c(-c5cccnc5)cccc43)CC2)ccc1C [Example 95, N-(3-methoxy-4-methylphenyl)-4-[2-oxo-4-(pyridin-3-yl)-2,3-dihydro-1H-1,3-benzodiazol-1-yl]piperidine-1-carboxamide]
  IC50: 1810 nM

## COc1cc(NC(=O)N2CCC(n3c(=O)[nH]c4c(-c5cncc(N)c5)cccc43)CC2)ccc1C [Example 97, 4-[4-(5-Aminopyridin-3-yl)-2-oxo-2,3-dihydro-1H-1,3-benzodiazol-1-yl]-N-(3-methoxy-4-methylphenyl)piperidine-1-carboxamide]
  IC50: 1720 nM

## COc1ccc(NC(=O)N2CCC(n3c(=O)[nH]c4c(-c5cccnc5)cccc43)CC2)cc1Cl [Example 98, N-(3-chloro-4-methoxyphenyl)-4-[2-oxo-4-(pyridin-3-yl)-2,3-dihydro-1H-1,3-benzodiazol-1-yl]piperidine-1-carboxamide]
  IC50: 2620 nM

## COc1ccc(NC(=O)N2CCC(n3c(=O)[nH]c4c(-c5ccc(N)nc5)cccc43)CC2)cc1Cl [Example 99, 4-[4-(6-Aminopyridin-3-yl)-2-oxo-2,3-dihydro-1H-1,3-benzodiazol-1-yl]-N-(3-chloro-4-methoxyphenyl)piperidine-1-carboxamide]
  IC50: 1160 nM

## COc1ccc(NC(=O)N2CCC(n3c(=O)[nH]c4c(-c5cnc6[nH]ncc6c5)cccc43)CC2)cc1Cl [Example 101, N-(3-chloro-4-methoxyphenyl)-4-(2-oxo-4-{1H-pyrazolo[3,4-b]pyridin-5-yl}-2,3-dihydro-1H-1,3-benzodiazol-1-yl)piperidine-1-carboxamide]
  IC50: 2260 nM

## COc1cc(NC(=O)N2CCC(n3c(=O)[nH]c4c(-c5cccnc5)cccc43)CC2)ccc1Cl [Example 102, N-(4-chloro-3-methoxyphenyl)-4-[2-oxo-4-(pyridin-3-yl)-2,3-dihydro-1H-1,3-benzodiazol-1-yl]piperidine-1-carboxamide]
  IC50: 2770 nM

## COc1cc(NC(=O)N2CCC(n3c(=O)[nH]c4c(-c5cncc(N)c5)cccc43)CC2)ccc1Cl [Example 104, 4-[4-(5-Aminopyridin-3-yl)-2-oxo-2,3-dihydro-1H-1,3-benzodiazol-1-yl]-N-(4-chloro-3-methoxyphenyl)piperidine-1-carboxamide]
  IC50: 2280 nM

## COc1ccc(-c2cccc3c2[nH]c(=O)n3C2CCN(C(=O)Nc3ccc(Cl)c(OC)c3)CC2)cn1 [Example 105, N-(4-chloro-3-methoxyphenyl)-4-[4-(6-methoxypyridin-3-yl)-2-oxo-2,3-dihydro-1H-1,3-benzodiazol-1-yl]piperidine-1-carboxamide]
  IC50: 2940 nM

## COc1ccc(NC(=O)N2CCC(n3c(=O)[nH]c4c(N(C)CCN(C)C)cccc43)CC2)cc1Cl [Example 106, N-(3-chloro-4-methoxyphenyl)-4-(4-{[2-(dimethylamino)ethyl](methyl)amino}-2-oxo-2,3-dihydro-1H-1,3-benzodiazol-1-yl)piperidine-1-carboxamide]
  IC50: 1750 nM
